Measured values from PMC9218685, “Legume Plant Peptides as Sources of Novel Antimicrobial Molecules Against Human Pathogens” (Frontiers in Molecular Biosciences, 2022).
Values after ≈ are worked out from the molar mass of the structure shown. Peptide text beside a SMILES is read from it.

Assays:
Human red blood cells = test: Hemolysis assay; type: cell-based; conditions: 1 h at 37°C in TBS pH 7.2, peptides 0.4–100 μM, hemoglobin release OD560, relative to 0.5% Triton X-100 = 100%
Procedure: Human blood was purchased from the Regional Blood Centre in Szeged. The use of human blood for the hemolysis assay has been authorized by the Regional Hungarian Ethics Committee and approved by the Ethics Review Sector of DG RTD (European Commission) in connection with EK’s ERC AdG SymBiotics. The cells from 10 ml of EDTA-blood were centrifuged at 1,500 × g for 1 min and washed several times in TBS buffer (10 mM Tris, pH = 7.2, 150 mM NaCl) until the supernatant became colorless. The cells were then resuspended in 12 ml TBS buffer and 100 μl of this cell suspension was incubated for 1 h at 37°C in the presence of NCR peptides (0.4–100 μM). The cells were centrifuged at 1,500 g for 1 min and the supernatants were transferred into sterile 96-well plates and the hemoglobin release was measured at OD560 (Hidex Sense Microplate Reader with Plate Reader Software version 5064). […] The hemolytic activity was calculated as % of red blood cell disruption relative to the positive control sample lysed with detergent Triton X-100.
While AMPs can be very effective against microbes, they should not be toxic for human cells. […] Disruption of red blood cells was measured by spectrophotometry and compared to samples lysed with the detergent Triton X-100 (Supplementary Figure S2). […]

[1] = test system: Acinetobacter baumannii (ATCC 17978); test: microbe, parasite or virus in culture; type: cell-based; conditions: ATCC 17978, 3 h
Outline: (§1)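 MBC read as lowest peptide concentration giving no viable bacteria; ~10^7 log-phase cells, PPB pH 7.4, 3 h treatment, 2-fold dilutions from 25 µM.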

[2] = test system: Enterococcus faecalis (ATCC 29212); type: cell-based
Outline: as §1

[3] = test system: Escherichia coli (ATCC 8739); type: cell-based; conditions: ATCC 8739, 3 h
Outline: as §1

[4] = test system: Listeria monocytogenes (ATCC 19111); type: cell-based; conditions: ATCC 19111, 3 h
Outline: as §1

[5] = test system: Pseudomonas aeruginosa (ATCC 27853); type: cell-based; conditions: ATCC 27853, 3 h
Outline: as §1

[6] = test system: Salmonella enterica (ATCC 13076); type: cell-based; conditions: ATCC 13076, 3 h
Outline: as §1

[7] = test system: E. coli, S. enteritidis, P. aeruginosa, L. monocytogenes, S. aureus, E. faecalis, K. pneumoniae and A. baumannii; test: Antimicrobial activity assay, spectrum over the eight tested pathogenic bacteria; type: cell-based; conditions: 3 h treatment of ~10^7 log phase bacteria, peptides 25 to 0.8 µM; active = MBC ≤25 µM
Outline: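 MBC taken as the lowest peptide concentration leaving no viable bacteria after 3 h exposure of ~10^7 log-phase cells. Peptides tested by 2-fold serial dilution, 25 µM down to 0.8 µM, in PPB (pH 7.4). Gram-positive and Gram-negative reference strains from ATCC, NCTC and HNCMO collections.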

[8] = peptides carrying a StrepII tag at their C-terminus, 25 µM, 10% Fetal Bovine Serum, 37°C, 18 h; StrepTactin-HRP Western blot
Procedure: Peptides were incubated in 10% Fetal Bovine Serum at 37°C for 18 h. Full length NCRs were used at 25 μM, while short derivatives at 50 μM. The serum proteins and peptides were separated by sodium dodecyl sulfate-polyacrylamide gel electrophoresis (SDS-PAGE, 12% bis-tris gel, MES buffer pH 7.3) and visualized by Coomassie blue staining. NCRs with StrepII tag at their C-terminus were also detected by Western blot analysis using Precision Protein StrepTactin-HRP conjugate antibody (BioRad) and Clarity Western ECL (BioRad) for chemiluminescence detection according to the supplier.
FIGURE S3 Serum stability assay. Full length NCRs, StrepII-tagged NCR peptides (25 µM) and shorter NCR derivatives (50 µM) were incubated in water or in 10% Fetal Bovine Serum (FBS) for 18 hours at 37°C. Serum proteins and the peptides were separated by SDS-Page and visualized by Coomassie blue staining or in the case of StrepII-tagged NCRs also with Western blot. […]

[9] = test system: E. coli in vitro coupled transcription/translation; test: In vitro transcription/translation assay (GFP production); type: biochemical; conditions: RTS 100 E. coli HY Kit, 100 µM peptide or streptomycin, 2 technical parallels
Procedure: RTS 100 E. coli HY Kit (biotechrabbit Gmbh, Germany, catalog number: BR1400102) was used for the in vitro transcription/translation assay, according to the protocol. pIVEX2.3 control vector was used to produce GFP protein and to measure the translational efficiency. The amount of GFP produced was measured using a Hidex Plate Reader (Hidex Sense Microplate Reader with Plate Reader Software version 5064). […] All peptides and streptomycin were used at 100 µM concentration.
FIGURE 5 GFP production by E. coli in vitro coupled transcription-translation assay in the presence of 100 µM NCR or streptomycin. GFP fluorescence represents the average values of 2 technical parallels with their respective standard deviations (SD). *: p < 0.05, ****: p < 0.0001, as determined by one-way ANOVA.

[10] = quoted in the Introduction; ref Kim et al., 2015; cited from earlier work
Excerpt: In the Inverted Repeat Lacking Clade (IRLC) of legumes, in addition to defensins, a related family of peptides has evolved that encodes nodule specific, cysteine-rich NCR peptides that play essential roles in symbiosis ([Mergaert et al., 2003]; [Nallu et al., 2013]; [Montiel et al., 2017]). Legume plants in symbiosis with their rhizobium bacterium partner form nitrogen-fixing root nodules. The primary role of the NCR peptides is to convert bacteria into large polyploid, non-cultivable nitrogen-fixing bacteroids in the nodule cells ([Van de Velde et al., 2010]). This is a terminal differentiati ... || IRLC includes 56 genera and more than 4,000 species ([Duan et al., 2021]), and presumably all species have NCRs as it was confirmed in a few selected species. The genus Astragalus, with 2,300–2,500 members, has the highest number of species among angiosperms ([Duan et al., 2021]). In A. canadensis 108 NCRs have been identified ([Montiel et al., 2017]), while in the members of the Vicioid subclade 200–700 NCRs ([Ištvánek et al., 2014]; [Montiel et al., 2017]), thus, it is reasonable to assume that IRLC species in total express hundreds of thousand different NCRs, providing almost unlimited amou ...

In the case of `CC[C@H](C)[C@H](NC(=O)CNC(=O)[C@@H](NC(=O)[C@H](CCCNC(=N)N)NC(=O)[C@@H]1CCCN1C(=O)[C@H](CS)NC(=O)[C@H](CC(=O)O)NC(=O)[C@H](CCCCN)NC(=O)[C@H](CC(=O)O)NC(=O)[C@H](CCCCN)NC(=O)[C@@H](NC(=O)[C@H](CS)NC(=O)[C@H](CO)NC(=O)[C@H](Cc1c[nH]cn1)NC(=O)[C@H](CC(N)=O)NC(=O)[C@H](CCCNC(=N)N)NC(=O)[C@H](CC(C)C)NC(=O)[C@H](CC(N)=O)NC(=O)[C@@H](NC(=O)[C@@H](N)CO)[C@@H](C)CC)[C@@H](C)CC)C(C)C)C(=O)N[C@@H](CC(C)C)C(=O)N[C@@H](CC(N)=O)C(=O)N[C@H](C(=O)N[C@@H](CCCNC(=N)N)C(=O)N[C@@H](CS)C(=O)N[C@@H](CCCNC(=N)N)C(=O)N[C@@H](CCCCN)C(=O)NCC(=O)N[C@@H](Cc1ccccc1)C(=O)N[C@@H](CS)C(=O)N[C@H](C(=O)N[C@@H](Cc1c[nH]cn1)C(=O)N[C@H](C(=O)N[C@@H](CO)C(=O)O)[C@@H](C)CC)C(C)C)[C@@H](C)CC` [MsNCR465] (H-SINLRNHSCIKDKDCPRVGILNIRCRKGFCVHIS-OH; N-terminus assumed), the “Hemolytic activity on human red blood cells” value (Human red blood cells) is reported as “mild hemolysis at 50 and 100 μM”.

For `CC[C@H](C)[C@H](N)C(=O)N[C@@H](CCCNC(=N)N)C(=O)N[C@H](C(=O)N[C@@H](Cc1c[nH]cn1)C(=O)N[C@@H](CS)C(=O)N[C@@H](CCCCN)C(=O)N[C@@H](CC(=O)O)C(=O)N[C@@H](CC(=O)O)C(=O)N[C@@H](Cc1ccccc1)C(=O)N[C@@H](CC(=O)O)C(=O)N[C@@H](CS)C(=O)N[C@H](C(=O)N[C@@H](CCC(=O)O)C(=O)N[C@@H](CC(N)=O)C(=O)N[C@@H](CCCNC(=N)N)C(=O)N[C@@H](CC(C)C)C(=O)N[C@@H](CCC(N)=O)C(=O)N[C@H](C(=O)NCC(=O)N[C@@H](CS)C(=O)N[C@@H](CCCNC(=N)N)C(=O)N[C@@H](CC(C)C)C(=O)N[C@@H](CCC(N)=O)C(=O)N[C@@H](CCCNC(=N)N)C(=O)N[C@@H](CCC(=O)O)C(=O)N[C@@H](CCCCN)C(=O)N1CCC[C@H]1C(=O)N[C@@H](CCCNC(=N)N)C(=O)N[C@@H](CS)C(=O)N[C@H](C(=O)N[C@@H](CC(N)=O)C(=O)N[C@@H](CC(C)C)C(=O)N[C@H](C(=O)N[C@@H](CS)C(=O)N[C@@H](CCCNC(=N)N)C(=O)N[C@@H](CS)C(=O)N[C@@H](CC(C)C)C(=O)N[C@@H](CCCNC(=N)N)C(=O)N[C@@H](CCCNC(=N)N)C(=O)O)C(C)C)C(C)C)C(C)C)[C@@H](C)CC)[C@@H](C)CC` [NCR055] (H-IRIHCKDDFDCIENRLQVGCRLQREKPRCVNLVCRCLRR-OH; N-terminus assumed), the “MBC Acinetobacter baumannii” value [1] was 3.125 µM (≈ 14.9 µg/mL), the “Ability to kill E. faecalis” value ([2]; 3 h, ~10^7 log phase bacteria, peptides ≤25 µM) was “able to kill” and the “MBC Enterococcus faecalis” value ([2]; ATCC 29212, 3 h) was 12.5 µM (≈ 59.5 µg/mL). For the same molecule, the “MBC Escherichia coli” value [3] was 6.25 µM (≈ 29.7 µg/mL), the “MBC Listeria monocytogenes” value [4] was 3.125 µM (≈ 14.9 µg/mL) and the “MBC Pseudomonas aeruginosa” value [5] was 6.25 µM (≈ 29.7 µg/mL). The “MBC Salmonella enterica” value [6] was 6.25 µM (≈ 29.7 µg/mL), the “Antibacterial spectrum over the eight tested bacterial strains” value [7] was “effective against six bacterial strains but not against S. aureus and K. pneumonia” and the “Stability in serum by Western blot” value [8] was “stable in the presence of FBS”.

With `[H]/N=C(/N)N[C@H]1[C@H](O)[C@@H](O)[C@H](O[C@@H]2O[C@@H](C)[C@](O)(C=O)[C@H]2O[C@@H]2O[C@@H](CO)[C@H](O)[C@@H](O)[C@@H]2NC)[C@@H](N/C(N)=N\[H])[C@@H]1O` [streptomycin] the “Effect on GFP production (translation)” value [9] was “inhibited strongly”.

In the case of “DRECDTDTECQKKFPGVNAHHLWCDNGNCVSYPK [NCR211, anionic M. truncatula NCR peptide]”, the “Antibacterial spectrum over the eight tested bacterial strains” value [7] is listed as “inactive” and the net charge [10] is listed as −2.1.
